Assay results reported in patent US6136784A, “Amylin agonist pharmaceutical compositions containing insulin” (Amylin Pharmaceuticals, Inc., priority 1998, dated 2000).
Read-outs that look alike come from different tables or passages of the source. Positions of bridges follow the written chain, without caps; N, C: chain ends. No end group written: not given here.

What was measured:
[1] = test system: insulin-stimulated glycogen synthesis in soleus muscle; experiment: Soleus muscle assay (inhibition of insulin-stimulated glycogen synthesis); type: cell-based, rat; conditions: 7.1 nM insulin
Method: Assays of biological activity of amylin agonists in the soleus muscle may be performed using previously described methods (Leighton, B. and Cooper, Nature, 335:632-635 (1988); Cooper, et al., Proc. Natl. Acad. Sci. USA 85:7763-7766 (1988)), in which amylin agonist activity may be assessed by measuring the inhibition of insulin-stimulated glycogen synthesis. The soleus muscle assay is also described below.
Determination of amylin agonist activity of compounds was carried out using the soleus muscle assay as follows. Male Harlan Sprague-Dawley rats of approximately 200 g mass were used in order to maintain mass of the split soleus muscle less than 40 mg. The animals were fasted for 4 hours prior to sacrifice by decapitation. The skin was stripped from the lower limb which was then pinned out on corkboard. The tendo achilles was cut just above os calcis and m. gastrocnemius reflected out from the posterior aspect of the tibia. M. soleus, a small 15-20 mm long, 0.5 mm thick flat muscle on the bone surface of m. gastrocnemius was then stripped clear and the perimysium cleaned off using fine scissors and forceps. […]
^14 C-glycogen determination was performed in a 7 mL scintillation vial. […] The remaining glycogen was redissolved in 1 mL water and 4 mL scintillation fluid and counted for ^14 C. […]

[2] = self injected three times per day, 14 days, plus usual insulin; cited from earlier work
[3] = intravenous infusion; cited from earlier work
[4] = 30-microgram doses four times per day, 14 days; p=0.003; cited from earlier work
[5] = cited from earlier work
[6] = 28 days, cited from earlier work
[7] = test system: Harlan Sprague Dawley (non-diabetic) rats; experiment: Phenol red gastric emptying assay, normal rats; type: in vivo, rat; conditions: sc bolus 5 minutes before gavage, ±0.19 log units
From the text: (§1) Methods of measuring the rate of gastric emptying are disclosed in, for example, Young et al., Diabetolocia, 38(6):642-648 (1995). In a phenol red method, which is described below, conscious rats receive by gavage an acoloric gel containing methyl cellulose and a phenol red indicator. Twenty minutes after gavage, animals are anesthetized using halothane, the stomach exposed and clamped at the pyloric and lower esophageal sphincters, removed and opened into an alkaline solution. Stomach content may be derived from the intensity of the phenol red in the alkaline solution, measured by absorbance at a wavelength of 560 nm. […] Tritium in the plasma separated from tail blood is collected at various timepoints and detected in a beta counter. […]
(§2) Gastric emptying was measured using a modification (Plourde et al., Life Sci. 53:857-862 (1993)) of the original method of Scarpignato et al. (Arch. Int. Pharmacodyn. Ther. 246:286-295 (1980)). […] Stomach content was derived from the intensity of the phenol red in the alkaline solution, measured by absorbance at a wavelength of 560 nm. […] In other experiments, particulate gastric contents were centrifuged to clear the solution for absorbance measurements. Where the diluted gastric contents remained turbid, the spectroscopic absorbance due to phenol red was derived as the difference between that present in alkaline vs acetified diluent. […]

diabetic BB rats = experiment: Phenol red gastric emptying assay, diabetic rats; type: in vivo, rat; conditions: sc bolus 5 minutes before gavage, ±0.18 log units
From the text: as §1, §2

[8] = test system: Harlan Sprague Dawley rats; experiment: Tritiated glucose gastric emptying assay; type: in vivo, rat; conditions: sc 1 minute before gavage of tritiated glucose
From the text: Methods of measuring the rate of gastric emptying are disclosed in, for example, Young et al., Diabetolocia, 38(6):642-648 (1995). In a phenol red method, which is described below, conscious rats receive by gavage an acoloric gel containing methyl cellulose and a phenol red indicator. Twenty minutes after gavage, animals are anesthetized using halothane, the stomach exposed and clamped at the pyloric and lower esophageal sphincters, removed and opened into an alkaline solution. Stomach content may be derived from the intensity of the phenol red in the alkaline solution, measured by absorbance at a wavelength of 560 nm. In a tritiated glucose method, which is described in Example 9 below, conscious rats are gavaged with tritiated glucose in water. The rats are gently restrained by the tail, the tip of which is anesthetized using lidocaine. Tritium in the plasma separated from tail blood is collected at various timepoints and detected in a beta counter. Test compounds are normally administered about one minute before gavage.
Conscious, non-fasted, Harlan Sprague Dawley rats were restrained by the tail, the tip of which was anesthetized using 2% lidocaine. Tritium in plasma separated from tail blood collected 0, 15, 30, 60, 90 and 120 minutes after gavage was detected in a beta counter. […]

[9] = in vivo, sc; cited from earlier work

Q: For “^2,7 Cyclo-[^2 Asp,^7 Lys]-h-Amylin (KDNTATKATQRLANFLVHSSNNFGAILSSTNVGSNTY; lactam 2-7; ends not checked; UniProt P10997 34-70, looked up, variant C2D C7K) [compound 2]”, which EC50 [1] is on record?
A: 6.62 nM

Q: With ^25,28,29 Pro-h-Amylin [compound 12] as the substance, how does the “Blood-glucose concentrations after a test meal compared to placebo” value [2] read?
A: statistically significant reduction

Q: What about the Post-meal blood-glucose concentrations [3] of the same substance?
A: significantly reduced

Q: What about the “Reduction of average blood-glucose concentrations over a 24-hour observation period compared to placebo” value [4] of the same substance?
A: 35 mg/dL

Q: What about the Tolerability ([5]; 30-microgram dose) of the same substance?
A: well tolerated

Q: What about the “Lowering of fructosamine compared to placebo” value ([5]; 30-microgram doses four times per day, 28 days, p=0.003) of the same substance?
A: 33 µmol/L

Q: And the “Lowering of 24-hour average blood-glucose concentrations compared to placebo” value ([5]; 30-microgram doses four times per day, 28 days, p=0.009)?
A: 31 mg/dL

Q: And the Lowering of fructosamine ([6]; 30 micrograms four times a day, p=0.029)?
A: 17.5 µmol/L

Q: And the Lowering of fructosamine ([6]; 60 micrograms four times a day, p=0.001)?
A: 22.6 µmol/L

Q: And the Lowering of fructosamine ([6]; 60 micrograms three times a day, p=0.003)?
A: 24.1 µmol/L

Q: With ^25,28 Pro-h-Amylin [compound 6] as the substance, how does the EC50 [1] read?
A: 13.2 nM

Q: Which ED50 for inhibition of gastric emptying [7] does the source give for rat amylin here?
A: 0.43 µg

Q: And the ED50 for inhibition of gastric emptying (diabetic BB rats)?
A: 2.2 µg

Q: What about the ED50 derived from the logistic fit (plasma tritium AUC over 30 minutes) [8] of the same substance?
A: 0.35 µg

Q: Which results are given for “soluble insulin: soluble insulin given by subcutaneous injection”?
A: Duration of action (lasts for) [9]: 4 to 6 h; Time to absorption following subcutaneous injection [9]: 30 min
